Results published in ChEMBL document CHEMBL1681658, “Design, synthesis and SAR of a series of 1,3,5-trisubstituted benzenes as thrombin inhibitors” (Bioorg Med Chem Lett, 2011).

Key:
[1] = Inhibition of trypsin
[2] = system: Plasma; assay: Anticoagulant activity in human plasma assessed as concentration required to double activated partial thromboplastin time; assay type: functional
[3] = biological target: Prothrombin (Homo sapiens, UniProt P00734); assay: Inhibition of thrombin

Structure (SMILES)	Ki [1] [µM]	Ki [3] [µM]	2aPTT [2] [µM]
Cc1cc(C(=O)NCc2cc(Cl)ccc2-n2cncn2)cc(C(=O)N(CC(C)C)CC(C)C)c1	> 100	0.007	5.3
Cc1cc(OCCc2ccccc2-n2cnnn2)cc(C(=O)N(CC(C)C)CC(C)C)c1	37	0.0017	4.4
COc1ccc(Cl)cc1CCOc1cc(C)cc(C(=O)N(CC(C)C)CC(C)C)c1	> 100	0.034	
Cc1cc(OCC(F)(F)c2cc(C)ccn2)cc(C(=O)N(CC(C)C)CC(C)C)c1	> 100	0.037	
COC(=O)COc1ccc(Cl)cc1CCOc1cc(C)cc(C(=O)N(CC(C)C)CC(C)C)c1	> 100	0.00073	>8.2
Cc1cc(C(=O)NCc2cc(Cl)ccc2CN)cc(C(=O)N(CC(C)C)CC(C)C)c1	111	0.00068	1.6
Cc1cc(OCCc2nc[nH]c2C)cc(C(=O)N(CC(C)C)CC(C)C)c1	2.6	0.0035	4.1
Cc1cc(C(=O)NCc2cc(Cl)ccc2-n2cnnn2)cc(N(CCN)C2CCCCC2)c1	75	0.0016	1.48
Cc1cc(C(=O)NCc2cc(Cl)ccc2-n2cnnn2)cc(C(=O)N(CC(C)C)CC(C)C)c1	29	0.00027	1.2

More lines, main results first:

Ki [1] [µM]	Ki [3] [µM]	Structure (SMILES)	2aPTT [2] [µM]
278	0.0018	Cc1cc(C(=O)NCc2cc(Cl)ccc2-n2cnnn2)cc(C2CNCCC2CC(C)C)c1 (stereo unspecified)	1.42
302	0.067	Cc1cc(C(=O)NCc2cc(Cl)ccc2-n2cnnn2)cc(-c2cnccc2N(C)C)c1	
29	0.0029	Cc1cc(OCCc2ccccc2CN)cc(C(=O)N(CC(C)C)CC(C)C)c1	3.6
> 100	0.00125	Cc1cc(C(=O)NCc2cc(Cl)ccc2-n2cnnn2)cc(N(C2CCCC2)S(C)(=O)=O)c1	0.75
> 100	0.00027	Cc1cc(C(=O)NCc2cc(Cl)ccc2-n2cnnn2)cc(-c2cnccc2C(C)C)c1	1.5
483	0.00077	Cc1cc(C(=O)NCc2cc(Cl)ccc2-n2cnnn2)cc(-c2c[n+]([O-])ccc2C(C)C)c1	0.38
78	0.0016	Cc1cc(OCCc2cc(Cl)ccc2OCC(=O)NC2CCCNC2)cc(C(=O)N(CC(C)C)CC(C)C)c1 (stereo unspecified)	>8.2
> 100	0.00093	Cc1cc(C(=O)NCc2cc(Cl)ccc2-n2cnnn2)cc(N(C2CCCCC2)S(C)(=O)=O)c1	0.87
> 100	0.085	CC(=O)c1ccncc1-c1cc(C)cc(C(=O)NCc2cc(Cl)ccc2-n2cnnn2)c1	
> 100	0.0096	Cc1cc(NC2CCCCC2)cc(C(=O)NCc2cc(Cl)ccc2-n2cnnn2)c1	>8.2
> 100	0.0041	CC(=O)N(c1cc(C)cc(C(=O)NCc2cc(Cl)ccc2-n2cnnn2)c1)C1CCCCC1	1.67
> 100	0.05	Cc1cc(C(=O)NCc2ccccc2-n2cnnn2)cc(C(=O)N(CC(C)C)CC(C)C)c1	
28	0.00093	Cc1cc(OCCc2cc(Cl)ccc2-n2cncn2)cc(C(=O)N(CC(C)C)CC(C)C)c1	7.1
